In test [1] the test system is B16 melanoma cells. Put plainly: B16 melanoma lung metastasis model. It is filed as in vivo, C57BL/6 mice. The following applies: 1 and 0.1 ng i.v.; versus ThrCer; comparable protection at 1000‐fold lower dose than ThrCer. On the procedure: To this end, mice were injected i.v. with a range of doses of lipids (100, 1, 0.1 ng) and 3 days later, challenged with i.v. injected 5 × 10^5 B16 melanoma cells. Fourteen days later, the metastasis load in the lungs was quantified. […] With a reduction in lipid dose, the extent of tumor metastasis burden increased to varying degrees.
(A) Mice were immunized with 100, 1, or 0.1 ng of lipids i.v. 3 days before receiving an i.v. challenge with 5 × 10^5 B16 melanoma cells (n = 4/group). Two weeks later the lungs were removed and the number of metastatic nodules quantified as described in section “Materials and methods”. Data in the three panels are shown as mean ± SEM of tumor area as percentage of total lung area, and are representative of two independent experiments. (B) Representative lung lobe from each group is shown. Photographic images are representative of four lung lobes in each of two independent experiments.
C57BL/6 mice were challenged i.v. with syngeneic B16F10 melanoma, resuspended in PBS. A total of 5 × 10^5 cells in 200 μL were administered 3 days after administration of indicated doses of iNKT‐cell agonists (100, 1, or 0.1 ng). Two weeks after challenge, mice were killed, lungs removed, imaged and the percentage of lung tumor metastases quantified using Adobe Photoshop®.

For test [2], the system named is OVA‐specific CD8+ T cells. Kind of test: OVA‐specific CD8+ T‐cell response after OVA plus lipid i.v. (H‐2Kb/OVA257–264 tetramer). It is filed as in vivo, mice. On the procedure: In order to assess the downstream effect of treatment with low concentrations of lipid in vivo, mice were injected with the model antigen OVA together with two different doses of ThrCer 6 and α‐GalCer. Seven days later, OVA‐specific CD8^+ T cells were detected in the blood by H‐2 K^b/OVA257–264 tetramer staining of CD8^+ T cells.
(A and B) Mice were given 400 μg OVA together with i.v. injection of vehicle or 10 or 750 ng of either α‐GalCer or ThrCer 6. OVA‐specific CD8^+ T cells were enumerated in the blood using tetrameric H‐2K^b/OVA257–264 flow cytometry at (A) day 7 and at (B) day 12. Each square or circle represents the data for a single mouse (n = 4–6/group). Data shown as mean ± SEM and are representative of three independent experiments. **p = 0.0012, *p = 0.0114; Student's t‐test.
Mice were bled on day 7 post immunization of lipids and peripheral blood lymphocytes (PBL) stained with tetrameric H‐2 K^b/OVA257–264 peptide complexes, as previously described 27. A representative tetramer staining is shown in Supporting Information Figure 4.

For test [3], the system named is iNKT hybridoma DN32.D3. Kind of test: Lipid‐pulsed, washed BMDC stimulation of iNKT hybridoma DN32.D3 (IL‐2). It is filed as cell-based, mouse. The settings on record: 10 and 1 ng agonist; up to 24 h after wash; compared with α‐GalCer. On the procedure:
The difference between the functional activity of ThrCer 6 and α‐GalCer, particularly noticeable at low concentrations, may be accounted for by differences in their bioavailability. To address this possibility, bone marrow (BM) derived DC were incubated with a range of different iNKT‐cell agonists at different concentrations overnight, then washed and incubated with fresh media for increasing lengths of time. Lipid‐pulsed DC were then used to stimulate the iNKT‐hybridoma DN32.D3 (Fig. 6A). […] The difference between the ThrCer 6 and ThrCer 7 analogs and α‐GalCer started to be evident as early as 3 h after lipid‐pulsed DC were washed (Fig. 6A).
Figure 6 Enhanced bioavailability of ThrCer 6 as compared to ThrCer and α‐GalCer. (A) Mouse BMDCs were pulsed for 6 h with 100, 10, or 1 ng/mL of indicated iNKT‐cell agonists. […] Diminished bioavailability is expressed as a percentage of the maximum DN32.D3 activation by each iNKT‐cell agonist. […] (B) IL‐2 in the supernatant from coculture of DN32.D3 with CD11c^+ cells isolated after 64 h was determined by ELISA. […] Significance was calculated between α‐GalCer and ThrCer 6. *p < 0.05, **p < 0.01, ***p < 0.001, ****p < 0.0001; Student's t‐test.
Levels of iNKT‐cell agonists, presented by CD1d on the surface of cells, were assessed by the amount of IL‐2 secreted by iNKT hybridoma DN32.D3 coincubated with the presenting cells for 17–24 h. […]

In the case of `CCCCCCCCCCCCCCCCCCCCCCCCCC(=O)N[C@@H](CO[C@H]1CC[C@H](O)[C@H](O)[C@H]1O)[C@H](O)[C@H](O)CCCCCCCCCCCCCC` [ThrCer 6], the “Protection against B16 lung metastases at reduced lipid dose” value in test [1] is “far greater protection”. In test [2] (10 ng i.v. with 400 μg OVA, day 7, compared with 10 ng α‐GalCer), the “Frequency of OVA‐specific CD8+ T cells, 10 ng lipid” value was “statistically significant higher frequency”. Besides, in test [2] (10 ng i.v. with OVA, day 12, higher frequency than α‐GalCer), the “Frequency of OVA‐specific CD8+ T cells, 10 ng lipid, day 12” value is listed as “persisted at day 12”. Also, the “Activation of DN32.D3 by lipid‐pulsed, washed BMDC” value in test [3] was “enhanced ability to activate DN32.D3”.
Turning to `CCCCCCCCCCCCCCCCCCCCCCCCCC(=O)N[C@@H](CO[C@H]1O[C@H](CO)[C@H](O)[C@H](O)[C@H]1O)[C@H](O)[C@H](O)CCCCCCCCCCCCCC` [α‐GalCer, α‐galactosylceramide, reference compound], the “Protection against B16 lung metastases at reduced lipid dose” value in test [1] is reported as “far greater protection”.

The values are drawn from PMC4913735, “Non‐glycosidic compounds can stimulate both human and mouse iNKT cells” (European Journal of Immunology, 2016).
